Measurements: PubChem BioAssay (NCI)
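A five-concentration, 48-hour dose response in 96-well plates underlies each endpoint, interpolated linearly between surrounding concentrations. TGI is the concentration that stops growth completely.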

How the values were obtained:
Assay in all cases: DTP human tumour cell line panel, 48 h
[1] = system: 786-0 renal
[2] = system: A498 renal
[3] = system: A549 NSCLC
[4] = system: ACHN renal
[5] = system: BT-549 breast
[6] = system: CAKI-1 renal
[7] = system: CCRF-CEM leukemia
[8] = system: COLO 205 colon
[9] = system: DU-145 prostate
[10] = system: EKVX NSCLC
[11] = system: HCC-2998 colon
[12] = system: HCT-116 colon
[13] = system: HCT-15 colon
[14] = system: HL-60(TB) leukemia
[15] = system: HOP-92 NSCLC
[16] = system: HS 578T breast
[17] = system: HT29 colon
[18] = system: IGROV1 ovarian
[19] = system: K-562 leukemia
[20] = system: KM12 colon
[21] = system: LOX IMVI melanoma
[22] = system: M14 melanoma
[23] = system: MALME-3M melanoma
[24] = system: MCF7 breast
[25] = system: MDA-MB-231 breast
[26] = system: MDA-MB-435
[27] = system: MDA-N
[28] = system: MOLT-4 leukemia
[29] = system: NCI-H226 lung
[30] = system: NCI-H23 lung
[31] = system: NCI-H460 lung
[32] = system: NCI-H522 lung
[33] = system: NCI/ADR-RES ovarian
[34] = system: OVCAR-3 ovarian
[35] = system: OVCAR-5 ovarian
[36] = system: OVCAR-8 ovarian
[37] = system: PC-3 prostate
[38] = system: RPMI-8226 leukemia
[39] = system: RXF 393 renal
[40] = system: SF-268 CNS
[41] = system: SF-295 CNS
[42] = system: SF-539 CNS
[43] = system: SK-MEL-2 melanoma
[44] = system: SK-MEL-28 melanoma
[45] = system: SK-MEL-5 melanoma
[46] = system: SK-OV-3 ovarian
[47] = system: SN12C renal
[48] = system: SNB-19 CNS
[49] = system: SNB-75 CNS
[50] = system: SR leukemia
[51] = system: SW-620 colon
[52] = system: T-47D breast
[53] = system: U251 CNS
[54] = system: UACC-257 melanoma
[55] = system: UACC-62 melanoma
[56] = system: UO-31 renal
[57] = system: HOP-62 NSCLC
[58] = system: OVCAR-4 ovarian
[59] = system: TK-10 renal

CCOC(=O)C1(C(C)=O)OC(=O)c2cnccc21 (stereo not given)
TGI [1]: > 100 µM | TGI [2]: > 100 µM | TGI [3]: > 100 µM | TGI [4]: > 100 µM | TGI [5]: > 100 µM | TGI [6]: > 100 µM | TGI [7]: > 100 µM | TGI [8]: > 100 µM | TGI [9]: > 100 µM | TGI [10]: > 100 µM | TGI [11]: > 100 µM | TGI [12]: > 100 µM | TGI [13]: > 100 µM | TGI [14]: > 100 µM | TGI [15]: > 100 µM | TGI [16]: > 100 µM | TGI [17]: > 100 µM | TGI [18]: > 100 µM | TGI [19]: > 100 µM | TGI [20]: > 100 µM | TGI [21]: > 100 µM | TGI [22]: > 100 µM | TGI [23]: > 100 µM | TGI [24]: > 100 µM | TGI [25]: > 100 µM | TGI [26]: > 100 µM | TGI [27]: > 100 µM | TGI [28]: > 100 µM | TGI [29]: > 100 µM | TGI [30]: > 100 µM | TGI [31]: > 100 µM | TGI [32]: > 100 µM | TGI [33]: > 100 µM | TGI [34]: > 100 µM | TGI [35]: > 100 µM | TGI [36]: > 100 µM | TGI [37]: > 100 µM | TGI [38]: > 100 µM | TGI [39]: > 100 µM | TGI [40]: > 100 µM | TGI [41]: > 100 µM | TGI [42]: > 100 µM | TGI [43]: > 100 µM | TGI [44]: > 100 µM | TGI [45]: > 100 µM | TGI [46]: > 100 µM | TGI [47]: > 100 µM | TGI [48]: > 100 µM | TGI [49]: > 100 µM | TGI [50]: > 100 µM | TGI [51]: > 100 µM | TGI [52]: > 100 µM | TGI [53]: > 100 µM | TGI [54]: > 100 µM | TGI [55]: > 100 µM | TGI [56]: > 100 µM

CCCCCCC(C)c1ccc2c(c1)C(=O)c1nc3ccncc3c(=O)n1-2 (stereo not given)
TGI [1]: > 45.3 µM | TGI [2]: > 100 µM | TGI [3]: 35.2 µM | TGI [4]: > 29.5 µM | TGI [5]: > 33.8 µM | TGI [6]: > 39.6 µM | TGI [7]: 5.83 µM | TGI [8]: > 39.1 µM | TGI [9]: > 35.1 µM | TGI [10]: > 43.4 µM | TGI [11]: > 20.5 µM | TGI [12]: > 36.8 µM | TGI [13]: > 57.7 µM | TGI [14]: 1.18 µM | TGI [57]: 35.7 µM | TGI [15]: > 100 µM | TGI [16]: 25.6 µM | TGI [17]: 8.78 µM | TGI [18]: > 34.4 µM | TGI [19]: 2.91 µM | TGI [20]: > 30.5 µM | TGI [22]: 11.4 µM | TGI [23]: 0.9 µM | TGI [24]: 32.7 µM | TGI [25]: > 100 µM | TGI [26]: 1.17 µM | TGI [27]: 0.6 µM | TGI [28]: 4.09 µM | TGI [29]: > 32.3 µM | TGI [30]: > 31.4 µM | TGI [31]: > 34.7 µM | TGI [33]: 15.7 µM | TGI [34]: 9.12 µM | TGI [58]: 10.3 µM | TGI [35]: 21.7 µM | TGI [36]: > 45.2 µM | TGI [37]: 16.1 µM | TGI [38]: 3.97 µM | TGI [39]: 14.7 µM | TGI [40]: > 100 µM | TGI [41]: 20.2 µM | TGI [42]: 20.3 µM | TGI [43]: 18.7 µM | TGI [44]: > 31.5 µM | TGI [45]: > 25.4 µM | TGI [46]: > 100 µM | TGI [47]: > 34.9 µM | TGI [48]: > 33 µM | TGI [49]: > 32.2 µM | TGI [50]: 2.57 µM | TGI [51]: > 30.6 µM | TGI [52]: > 40.8 µM | TGI [59]: > 65.8 µM | TGI [53]: > 45 µM | TGI [54]: > 32.1 µM | TGI [55]: > 36.9 µM | TGI [56]: > 35.7 µM

N#Cc1c(C#N)c(SSc2c(C#N)c(C#N)c(N)n2-c2ccc(F)cc2)n(-c2ccc(F)cc2)c1N
TGI [1]: 3.22 µM | TGI [2]: 18.9 µM | TGI [3]: 36.7 µM | TGI [4]: 8.55 µM | TGI [5]: 7.2 µM | TGI [6]: 21.1 µM | TGI [7]: 4.62 µM | TGI [8]: 3.76 µM | TGI [9]: 30.6 µM | TGI [10]: 5.13 µM | TGI [11]: 45.3 µM | TGI [12]: 3.38 µM | TGI [13]: 4.25 µM | TGI [14]: 4.44 µM | TGI [57]: 33.2 µM | TGI [15]: 7.82 µM | TGI [16]: > 58.3 µM | TGI [17]: 36.5 µM | TGI [18]: 37.9 µM | TGI [20]: 44.3 µM | TGI [21]: 59.9 µM | TGI [22]: 9.07 µM | TGI [23]: 3.28 µM | TGI [24]: > 24.8 µM | TGI [25]: 37.6 µM | TGI [26]: 19.2 µM | TGI [27]: 10.8 µM | TGI [28]: 2.99 µM | TGI [29]: 46 µM | TGI [30]: 14.3 µM | TGI [31]: 41.2 µM | TGI [32]: 4.11 µM | TGI [33]: 59.4 µM | TGI [34]: 6.92 µM | TGI [58]: > 100 µM | TGI [35]: 30.9 µM | TGI [36]: 32.4 µM | TGI [37]: 33.3 µM | TGI [39]: 8.48 µM | TGI [40]: 48.2 µM | TGI [41]: 31.8 µM | TGI [42]: 35.6 µM | TGI [43]: 44 µM | TGI [44]: 19.9 µM | TGI [45]: 31.1 µM | TGI [46]: 31.4 µM | TGI [47]: 31.5 µM | TGI [48]: 42.6 µM | TGI [49]: 32.6 µM | TGI [50]: 1.98 µM | TGI [51]: 5.59 µM | TGI [52]: 7.96 µM | TGI [59]: 8.27 µM | TGI [53]: 40.1 µM | TGI [54]: 32.5 µM | TGI [55]: 31.7 µM | TGI [56]: 3.87 µM
